Assay results: publication PMC10557067, “Preclinical characterization of tunlametinib, a novel, potent, and selective MEK inhibitor” (Frontiers in Pharmacology, 2023)

What was measured:
A375 cells = assay: Apoptosis assay by flow cytometry; conditions: 48 h
Protocol: (§1) Cell lines were inoculated at the density of 2×10^4 cells per well in a 6-well plate and cultured overnight. […] The cell cycle or apoptosis analysis was performed by flow cytometry.
(§2) Tumor cell lines were inoculated in 6-well plates at a density of 2×10^4 cells/well. […] Both apoptosis and cell cycle were measured by flow cytometry (Accuri C6, BD biosciences).

COLO 205 cells = assay: Apoptosis assay by flow cytometry; conditions: 48 h, control 21.9%
Protocol: as §1, §2

A375 = assay: Cell proliferation assay (MTT/MTS); conditions: Homo sapiens, A-375, read-out: IC50 ± SEM
Protocol: (§3) All cell lines were authenticated by short tandem repeat analysis and maintained following the ATCC instructions. […] Anti-proliferation activity was analyzed using the 3-(4,5-dimethylthiazole-2-yl)-2,5-diphenyl-2H-tetrazolium bromide (MTT) or (3-(4,5-dimethylthiazol-2-yl)-5-(3-carboxymethoxyphenyl)-2 -(4-sulfophenyl)-2H-tetrazolium) (MTS) assay.
(§4) A375, HT-29 and Calu-6 cell lines were purchased from the typical culture preservation commission cell bank of the Chinese Academy of Sciences in China. […] H358 cell line was obtained from EK-bioscience. Cells were seeded into 96-well plates at an appropriate density, and 24 h later, diluted drug in different concentrations was added to each test well in triplicate. The cell viability was tested 5 days (H358 was analyzed for 7 days) after the cells were plated according to the procedure originally described by Mosmann [1]. Survival rate was calculated using the formula: Survival rate = (Mean absorbance of experimental wells-Mean absorbance of DMSO wells) / (Mean absorbance of control wells-Mean absorbance of DMSO wells) × 100%. IC50 was determined from the regression of a plot of the logarithm of the concentration versus survival rate by GraphPad Prism 6 using the non-linear regression Dose–Response Inhibition (four parameters) Model.

COLO 205 = assay: Cell proliferation assay (MTT/MTS); conditions: Homo sapiens, COLO 205, read-out: IC50 ± SEM
Protocol: as §3, §4

Colo-829 = assay: Cell proliferation assay (MTT/MTS); conditions: Homo sapiens, COLO-829, read-out: IC50 ± SEM
Protocol: as §3
(§5) Cells were seeded into 96-well plates at an appropriate density, and 24 h later, diluted drug in different concentrations was added to each test well in triplicate. The cell viability was tested 5 days (H358 was analyzed for 7 days) after the cells were plated according to the procedure originally described by Mosmann [1]. Survival rate was calculated using the formula: Survival rate = (Mean absorbance of experimental wells-Mean absorbance of DMSO wells) / (Mean absorbance of control wells-Mean absorbance of DMSO wells) × 100%. IC50 was determined from the regression of a plot of the logarithm of the concentration versus survival rate by GraphPad Prism 6 using the non-linear regression Dose–Response Inhibition (four parameters) Model.

HT-29 = assay: Cell proliferation assay (MTT/MTS); conditions: Homo sapiens, HT-29, read-out: IC50 ± SEM
Protocol: as §3, §5

Calu-6 = assay: Cell proliferation assay (MTT/MTS); conditions: Homo sapiens, Calu-6, read-out: IC50 ± SEM
Protocol: as §3, §5

A549 = assay: Cell proliferation assay (MTT/MTS); conditions: Homo sapiens, A549, read-out: IC50 ± SEM
Protocol: as §3, §5

HL-60 = assay: Cell proliferation assay (MTT/MTS); conditions: Homo sapiens, HL-60, read-out: IC50 ± SEM
Protocol: as §3, §4

H1975 = assay: Cell proliferation assay (MTT/MTS); conditions: Homo sapiens, NCI-H1975, read-out: IC50 ± SEM
Protocol: as §3, §4

MRC-5 = assay: Cell proliferation assay (MTT/MTS); conditions: Homo sapiens, MRC5, read-out: IC50 ± SEM
Protocol: as §3, §4

MEK1 kinase = biological target: MEK1 kinase; set-up: method as in Iverson et al., 2009; conditions: ref Iverson et al., 2009; cited from earlier work
MEK2 kinase = biological target: MEK2 kinase; set-up: method as in Iverson et al., 2009; conditions: ref Iverson et al., 2009; cited from earlier work
[1] = cited from earlier work
[2] = set-up: method as in Infante et al., 2012; conditions: requires DMSO as co-solvate; ref Infante et al., 2012; cited from earlier work
MEK1/MAP2K1(h) = MEK1/MAP2K1(h) (Homo sapiens, UniProt Q02750); assay: MEK1 inhibition, comparison of tunlametinib and MEK162 (Caliper EZ Reader)
Sequence of MEK1/MAP2K1(h) (Q02750 whole entry): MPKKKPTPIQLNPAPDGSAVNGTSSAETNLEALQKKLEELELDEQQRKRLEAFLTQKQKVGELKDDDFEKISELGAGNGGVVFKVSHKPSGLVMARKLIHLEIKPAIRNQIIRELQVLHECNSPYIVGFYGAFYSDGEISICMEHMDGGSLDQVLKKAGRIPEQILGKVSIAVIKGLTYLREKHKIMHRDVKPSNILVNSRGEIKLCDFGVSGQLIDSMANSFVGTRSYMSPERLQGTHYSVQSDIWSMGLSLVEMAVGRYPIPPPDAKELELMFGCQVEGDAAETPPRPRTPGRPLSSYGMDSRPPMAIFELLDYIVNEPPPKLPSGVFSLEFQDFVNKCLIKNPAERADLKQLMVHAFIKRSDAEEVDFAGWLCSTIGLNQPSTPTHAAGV
Protocol: Kinase inhibition activity against MEK1 was conducted in Cerep (France) and Sundia (Shanghai, China).
The signals were measured using Caliper EZ Reader and the data were analyzed.

hERG channel = system: hERG channel; set-up: method as in Food and Drug Administration, 2015; conditions: ref Food and Drug Administration, 2015; cited from earlier work

| SMILES | apoptosis-inducing effect (A375 cells) | IC50 (A375) [nM] | IC50 (COLO 205) [nM] | IC50 (Colo-829) [nM] | IC50 (HT-29) [nM] | IC50 (Calu-6) [nM] | IC50 (A549) [nM] | IC50 (HL-60) [nM] | IC50 (H1975) [nM] | IC50 (MRC-5) [nM] | also measured |
| --- | --- | --- | --- | --- | --- | --- | --- | --- | --- | --- | --- |
| Cn1cnc2c(F)c(Nc3ccc(Br)cc3Cl)c(C(=O)NOCCO)cc21 [AZD6244, selumetinib] | no significant apoptosis-inducing effect | 67.52 ± 0.07 | 54.3 ± 2.21 | 301 ± 88.8 | 175 ± 19.3 | 2310 ± 204 | 5730 ± 1030 | 35.3 ± 20.9 | > 50000 | > 50000 | apoptosis rate (COLO 205 cells; 1 μM): 40.6% |
| COc1cc(F)c(F)c(Nc2ccc(I)cc2F)c1NS(=O)(=O)C1(C[C@H](O)CO)CC1 [REDA119] | – | – | – | – | – | – | – | – | – | – | IC50 (MEK1 kinase): 19 nM; IC50 (MEK2 kinase): 47 nM |
| CC(=O)Nc1cccc(-n2c(=O)n(C3CC3)c(=O)c3c(Nc4ccc(I)cc4F)n(C)c(=O)c(C)c32)c1 [GSK212, trametinib] | no significant apoptosis-inducing effect | 0.74 ± 0.01 | 0.74 ± 0.02 | 1.78 | 1.45 ± 0.2 | 10.56 ± 0.07 | 45.4 ± 4.76 | 0.6 ± 0.28 | > 1000 | > 1000 | drug accumulation ([1]; ref Infante et al., 2012): ~6 fold; mean accumulation ratio (day15/day1) ([1]; repeat dose of 2 mg, ref Food and Drug Administration, 2013): ~6.0; solubility property [2]: poor solubility; apoptosis rate (COLO 205 cells; 20 nM): 47.0% |
| Cn1cnc2c(F)c(Nc3ccc(Br)cc3F)c(C(=O)NOCCO)cc21 [MEK162, binimetinib] | – | – | – | – | – | – | – | – | – | – | IC50 (MEK1/MAP2K1(h)): 224 ± 16.9 nM |
| O=C(c1ccc(F)c(F)c1Nc1ccc(I)cc1F)N1CC(O)([C@@H]2CCCCN2)C1 [Cobimetinib, cobimetinib] | – | – | – | – | – | – | – | – | – | – | IC50 (hERG channel): 500 nM |
